Consider 1 molecule from US12466818B2, “Thienyl-aniline compounds for treatment of dermal disorders” (NFlection Therapeutics, Inc., priority 2018, dated 2025).

Structures are written as SMILES.

For the assay, the system named is HCT116 cells. As to the kind of experiment: Assay 3: HCT116 (Kras) GI50 assay (Cell Titer-Glo). It counts as cell-based. The following applies: Homo sapiens, HCT-116, 72 hours. Here is the method: Alternatively, the following procedure can be used to measure cell-based activity. Test compounds were dissolved in DMSO in 10 mM stock. Cell Titer-Glo® 2.0 Luminescent cell viability assay reagent was purchased from Promega (Madison, WI). A375 and HCT116 cell lines were purchased from American Type Culture Collection (Manassas, VA). For A375 cells, cell culture media was DMEM+10% FBS. For HCT116 cells, cell culture media was McCoy's 5A+10% FBS. All media were supplemented with 100 μg/mL of penicillin, and 100 μg/mL of streptomycin. Cultures were maintained at 37° C. in a humidified atmosphere of 5% CO2 and 95% air.
Test compounds were diluted in DMSO solution with 10-dose and 3-fold dilutions in a source plate starting at 10 mM. 25 nL of each test compound was delivered from the source plate to each well of the 384-well cell culture plates (T=Final) by Echo 550. 25 μL of culture medium containing 2000 of A375 or HCT116 cells was added to each of the wells in duplicates of the cell culture plates (T=0 and T=Final). 25 μL of Cell Titer Glo 2.0 reagent was added to each well of cell culture plate (T=0). The contents were mixed on an orbital shaker for 2 min and incubated at room temperature for 15 min to stabilize luminescent signal. Luminescence was recorded by Envision 2104 Multilabel Reader (PerkinElmer, Santa Clara, CA). The number of viable cells in culture was determined based on quantitation of the ATP present in each culture well. The cells in cell culture plate (T=Final) were incubated with the compounds at 37° C., 5% CO2 for 72 hours. 25 μL of Cell Titer Glo 2.0 reagent was added to each well. The contents were mixed on an orbital shaker for 2 min and incubated at room temperature for 15 min to stabilize luminescent signal. Luminescence was recorded by Envision 2104 Multilabel Reader (PerkinElmer, Santa Clara, CA). The number of viable cells in culture was determined based on quantitation of the ATP present in each culture well. The GI50 curves were plotted using the GraphPad Prism 4 program based on a sigmoidal dose-response equation Y=Bottom+(Top-Bottom)/(1+10^((Log EC50−X)*HillSlope)). All parameters in the equation were calculated by GraphPad Prism 4 program. […] Accordingly, GI50 is the value of 10^X, where X was calculated by the Curve Fitting Equation when Y=50 using Excel.
Assay 3 is the HCT116 (Kras) GI50 (nM) assay as described in Example 39. A3 indicates an IC50 of less than or equal to 5 μM, and B3 indicates an IC50 of greater than 5 μM and less than or equal to 10 μM.
In general terms: In ATP-based viability assays light output follows the ATP content of the culture.

As to `O=C1CCCc2c1sc(Nc1ccc(I)cc1F)c2C(=O)NOCCO` [Compound 1.029, 2-((2-Fluoro-4-iodophenyl)amino)-N-(2-hydroxyethoxy)-7-oxo-4,5,6,7-tetrahydrobenzo[b]thiophene-3-carboxamide], the GI50 was at most 5 µM.

As a reminder, the GI50 is the concentration giving 50% growth inhibition.
